For experiment [1], the target named is T1, Neuronal acetylcholine receptor; alpha4/beta2 (Homo sapiens, UniProt P17787+P43681). Briefly: Activation responses to that evoked by ACh at human Nicotinic acetylcholine receptor alpha4-beta2 expressed in xenopus oocytes at 300 uM. It counts as cell-based. To be noted: Oocyte.
Experiment [2] concerns the target T1, Neuronal acetylcholine receptor; alpha4/beta2. Briefly: Antagonism of ACh response at Nicotinic acetylcholine receptor alpha4-beta2 expressed in xenopus oocytes. It counts as functional, cell-based, Oocyte.
In experiment [3] the target is T2, 5-hydroxytryptamine receptor 3A (Rattus norvegicus) (UniProt P35563).
T2 sequence (whole entry): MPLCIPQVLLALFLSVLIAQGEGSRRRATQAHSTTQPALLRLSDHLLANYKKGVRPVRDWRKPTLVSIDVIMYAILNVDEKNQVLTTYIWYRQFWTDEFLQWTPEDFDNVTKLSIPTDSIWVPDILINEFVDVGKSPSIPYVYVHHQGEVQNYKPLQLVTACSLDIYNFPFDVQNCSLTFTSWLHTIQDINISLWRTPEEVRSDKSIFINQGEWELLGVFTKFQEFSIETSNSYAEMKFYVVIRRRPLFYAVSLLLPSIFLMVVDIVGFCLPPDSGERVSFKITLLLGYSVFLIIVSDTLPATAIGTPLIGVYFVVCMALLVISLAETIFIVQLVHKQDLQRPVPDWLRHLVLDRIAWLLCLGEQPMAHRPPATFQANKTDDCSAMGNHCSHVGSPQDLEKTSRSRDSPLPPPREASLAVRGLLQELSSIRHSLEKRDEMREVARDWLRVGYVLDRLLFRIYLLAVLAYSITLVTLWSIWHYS
Briefly: Effect on rat 5-hydroxytryptamine 3a receptor expressed in xenopus oocytes at concentration up to 100 uM. The format is functional, cell-based. To be noted: Oocyte.

The subject of experiment [4] is Oocyte. Briefly: Activation responses to that evoked by ACh at human Nicotinic acetylcholine receptor alpha-3-beta-2-alpha-5 expressed in xenopus oocytes at 100 uM. It counts as cell-based.
Experiment [5] deals with T1, Neuronal acetylcholine receptor; alpha4/beta2. Description: Activation responses to that evoked by ACh at human Nicotinic acetylcholine receptor alpha4-beta2. It counts as protein-complex assay.
Experiment [6] has as its target T3, Neuronal acetylcholine receptor; alpha3/beta4 (Homo sapiens, UniProt P30926+P32297). Description: Antagonism of ACh-evoked responses at human Nicotinic acetylcholine receptor alpha3-beta4 expressed in xenopus oocytes. It counts as functional, cell-based, Oocyte.
For experiment [7], the target named is T3, Neuronal acetylcholine receptor; alpha3/beta4. Description: Activation responses to that evoked by ACh at human alpha3-beta4 receptor expressed in xenopus oocytes at 1 mM. It counts as cell-based. The conditions noted are these: Oocyte.
Experiment [8] addresses T2, 5-hydroxytryptamine receptor 3A (Rattus norvegicus). Briefly: Ability to block serotonin (30 uM)-evoked responses at rat 5HT3-alpha receptor expressed in xenopus oocytes. The format is functional, cell-based. To be noted: Oocyte.
Experiment [9] addresses T4, Neuronal acetylcholine receptor; alpha3/beta2 (Homo sapiens) (UniProt P17787+P32297). Briefly: Activation responses to that evoked by Nicotinic acetylcholine receptor alpha3-beta2 expressed in xenopus oocytes at 1 mM. To be noted: Oocyte. The format is cell-based.
Experiment [10] deals with T4, Neuronal acetylcholine receptor; alpha3/beta2 (Homo sapiens). Description: Activation responses to that evoked by Nicotinic acetylcholine receptor alpha3-beta2 expressed in xenopus oocytes at 300 uM. The format is cell-based. To be noted: Oocyte.
Experiment [11] addresses T5, Neuronal acetylcholine receptor subunit alpha-7 (Rattus norvegicus, UniProt Q05941). Description: Activation responses to that evoked by ACh at human Nicotinic acetylcholine receptor alpha-7 expressed in xenopus oocytes. It counts as cell-based, Oocyte.
Experiment [12] relates to Oocyte. Description: Antagonism of ACh response at Nicotinic acetylcholine receptor alpha-3-beta-2-alpha-5 receptor expressed in xenopus oocytes up to 1 mM. The format is functional, cell-based. The conditions noted are these: Homo sapiens.
The target in experiment [13] is T5, Neuronal acetylcholine receptor subunit alpha-7. Description: Inhibition of the response to ACh when coapplied with Nicotinic acetylcholine receptor alpha7.
In experiment [14] the target is T3, Neuronal acetylcholine receptor; alpha3/beta4. Briefly: Responses to that evoked by Nicotinic acetylcholine receptor alpha3-beta4 expressed in xenopus oocytes up to 1 mM. It counts as cell-based. To be noted: Oocyte.
The target in experiment [15] is T4, Neuronal acetylcholine receptor; alpha3/beta2 (Homo sapiens). Briefly: Responses to that evoked by Nicotinic acetylcholine receptor alpha3-beta2 expressed in xenopus oocytes up to 1 mM. The format is cell-based. To be noted: Oocyte.
Experiment [16] concerns the target T1, Neuronal acetylcholine receptor; alpha4/beta2. Description: Responses to that evoked by ACh at human Nicotinic acetylcholine receptor alpha4-beta2 expressed in xenopus oocytes up to 1 mM. It counts as cell-based. To be noted: Oocyte.

Experimental findings from ChEMBL document CHEMBL1147510 (Bioorg Med Chem Lett, 2004) are described below.

A word on the IC50: it is the concentration at which inhibition is half-maximal. High values mean lower potency, low ones higher potency. The term EC50 denotes the concentration needed to bring the measured effect to its halfway point.

Activity calls are given as the source filed them. No cut-off for these calls is given here.

T1 sequence (P17787 whole entry): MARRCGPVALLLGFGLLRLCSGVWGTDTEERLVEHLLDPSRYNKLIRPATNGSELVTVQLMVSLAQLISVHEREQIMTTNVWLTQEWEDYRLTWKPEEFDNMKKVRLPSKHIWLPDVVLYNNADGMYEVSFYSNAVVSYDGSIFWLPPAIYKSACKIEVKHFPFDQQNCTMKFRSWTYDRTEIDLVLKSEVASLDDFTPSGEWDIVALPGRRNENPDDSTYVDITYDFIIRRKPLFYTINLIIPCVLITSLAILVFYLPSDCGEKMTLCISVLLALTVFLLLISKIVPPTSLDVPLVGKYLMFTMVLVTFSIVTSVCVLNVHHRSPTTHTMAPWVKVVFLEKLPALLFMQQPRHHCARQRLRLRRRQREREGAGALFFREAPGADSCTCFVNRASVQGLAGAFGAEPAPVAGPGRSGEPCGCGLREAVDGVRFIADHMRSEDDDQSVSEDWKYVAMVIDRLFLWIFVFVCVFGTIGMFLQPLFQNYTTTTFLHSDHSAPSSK
T1 sequence (P43681 whole entry): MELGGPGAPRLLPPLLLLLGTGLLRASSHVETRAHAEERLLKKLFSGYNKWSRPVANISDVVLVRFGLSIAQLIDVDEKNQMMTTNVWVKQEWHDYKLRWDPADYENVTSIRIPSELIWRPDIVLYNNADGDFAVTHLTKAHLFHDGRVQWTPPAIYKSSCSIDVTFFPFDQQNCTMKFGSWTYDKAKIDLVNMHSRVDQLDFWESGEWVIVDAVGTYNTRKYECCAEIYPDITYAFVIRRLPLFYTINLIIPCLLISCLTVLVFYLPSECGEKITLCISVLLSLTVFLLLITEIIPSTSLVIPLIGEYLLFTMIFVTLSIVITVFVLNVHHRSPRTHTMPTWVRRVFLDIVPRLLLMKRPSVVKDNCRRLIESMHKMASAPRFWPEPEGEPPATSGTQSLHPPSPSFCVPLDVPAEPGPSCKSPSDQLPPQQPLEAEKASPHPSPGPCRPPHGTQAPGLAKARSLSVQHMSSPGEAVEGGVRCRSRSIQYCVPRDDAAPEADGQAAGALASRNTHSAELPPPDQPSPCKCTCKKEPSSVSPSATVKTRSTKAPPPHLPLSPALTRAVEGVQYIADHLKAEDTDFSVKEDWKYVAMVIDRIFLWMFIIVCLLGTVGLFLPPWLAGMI
T5 sequence (Q05941 whole entry): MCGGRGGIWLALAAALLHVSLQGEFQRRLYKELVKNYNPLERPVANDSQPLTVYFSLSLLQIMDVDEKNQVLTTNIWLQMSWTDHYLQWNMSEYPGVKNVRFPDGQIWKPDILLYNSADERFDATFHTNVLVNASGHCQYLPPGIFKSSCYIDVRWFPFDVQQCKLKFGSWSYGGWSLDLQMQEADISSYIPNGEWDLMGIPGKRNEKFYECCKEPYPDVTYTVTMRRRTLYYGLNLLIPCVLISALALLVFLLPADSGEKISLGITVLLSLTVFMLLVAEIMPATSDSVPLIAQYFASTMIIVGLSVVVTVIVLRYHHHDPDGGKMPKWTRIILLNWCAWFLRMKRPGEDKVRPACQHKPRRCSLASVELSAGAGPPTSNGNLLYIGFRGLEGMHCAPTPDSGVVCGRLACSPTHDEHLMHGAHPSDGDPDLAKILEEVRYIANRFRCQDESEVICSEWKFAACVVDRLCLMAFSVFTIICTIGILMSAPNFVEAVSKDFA
T3 sequence (P30926 whole entry): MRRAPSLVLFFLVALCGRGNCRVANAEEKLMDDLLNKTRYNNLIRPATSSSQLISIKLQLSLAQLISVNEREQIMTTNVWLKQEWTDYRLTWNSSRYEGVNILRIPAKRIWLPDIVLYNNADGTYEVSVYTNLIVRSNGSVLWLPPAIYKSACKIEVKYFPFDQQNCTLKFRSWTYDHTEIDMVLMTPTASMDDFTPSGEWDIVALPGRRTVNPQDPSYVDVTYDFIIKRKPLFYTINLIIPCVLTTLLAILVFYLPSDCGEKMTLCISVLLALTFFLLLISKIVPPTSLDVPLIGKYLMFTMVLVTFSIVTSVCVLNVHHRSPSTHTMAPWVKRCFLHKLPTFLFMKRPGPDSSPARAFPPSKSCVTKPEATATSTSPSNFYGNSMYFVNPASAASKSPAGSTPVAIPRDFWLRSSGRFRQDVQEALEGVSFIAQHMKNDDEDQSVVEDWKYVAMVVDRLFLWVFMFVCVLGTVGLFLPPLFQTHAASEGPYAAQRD
T3 sequence (P32297 whole entry): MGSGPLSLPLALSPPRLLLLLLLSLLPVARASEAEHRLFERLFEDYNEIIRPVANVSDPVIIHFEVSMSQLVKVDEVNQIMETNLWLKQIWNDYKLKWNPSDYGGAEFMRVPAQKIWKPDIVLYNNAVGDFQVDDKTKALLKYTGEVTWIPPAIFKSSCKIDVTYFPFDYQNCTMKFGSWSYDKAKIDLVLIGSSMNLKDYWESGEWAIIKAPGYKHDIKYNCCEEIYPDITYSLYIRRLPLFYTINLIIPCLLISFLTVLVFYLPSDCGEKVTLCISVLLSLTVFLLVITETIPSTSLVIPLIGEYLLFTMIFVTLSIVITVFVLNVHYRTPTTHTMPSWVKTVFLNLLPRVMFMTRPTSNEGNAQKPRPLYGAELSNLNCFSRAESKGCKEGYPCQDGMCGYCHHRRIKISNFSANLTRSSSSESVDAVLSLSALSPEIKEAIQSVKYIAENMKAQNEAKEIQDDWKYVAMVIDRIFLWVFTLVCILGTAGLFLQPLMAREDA

Consider `O=C1NC[C@@]2(CN3CCC2CC3)O1`, for which the Activation in experiment [1] turned out to be 1%; in experiment [4], 3%; in experiment [5], 2%; in experiment [9], 2%; in [10] it was 1%. The figures for the IC50 in experiment [2] and in experiment [6] were above 2000 µM and above 1000 µM, respectively. The Effect result in experiment [3] and in experiment [8] was “inactive” in each case. Moreover, the Activation result in experiment [7] is “inactive”. In addition, in experiment [11], a half-maximal response (EC50) required 0.38 µM.

Regarding `Cc1nccn1CC1CCc2c(c3ccccc3n2C)C1=O` (stereo not drawn) [ONDANSETRON], the Effect result in [12] and in experiment [15] was “inactive” each time. For the same molecule, the half-inhibitory concentration (IC50) in experiment [2] was found to be 66 µM; in [13], 25 µM; in [6], 27 µM. Moreover, the Effect entry in [14] (filed as antagonist) and in experiment [16] (filed as antagonist) was “Antagonist” in each case.

With `CN1[C@@H]2CC[C@H]1C[C@@H](OC(=O)c1c[nH]c3ccccc13)C2` [TROPISETRON], the Effect entry in experiment [12], in experiment [14], in experiment [15] and in experiment [16] was “inactive” in each case. Inhibition in experiment [2] was half-maximal at 170 µM (IC50).
